What was measured:
rice blast = test: microbe, parasite or virus in culture; format: cell-based
diamond back moth = test: Insecticidal activity against diamond back moth (airbrush spray); format: in vivo; conditions: mortality after 72 h
Experimental: (§1) Compounds were dissolved in mixed solvent (acetone:methanol=1:1), and diluted to required concentration with water containing 0.1% of tween 80.
(§2) Diamond back moth, armyworm, Green Peach Aphid and carmine spider mite were used as targets and the method of spraying by airbrush was used for determination of insecticidal biassays.
The method of spraying by airbrush: The cabbage leaves were made into plates of 2 cm diameter by use of punch. A test solution (0.5 ml) was sprayed by airbrush at the pressure of 0.7 kg/cm^2 to both sides of every plate. 10 Second instar larvae were put into the petri-dishes after the leaf disc air-dried and 3 replicates were set for each treatment. Then the insects were maintained in observation room (25° C., 60˜70% R.H.). Scores were conducted and mortalities were calculated after 72 h.

[1] = tested on: Green peach aphids (Myzus Persicae Sulzer); test: Activity against green peach aphid (airbrush foliar spray); format: in vivo; conditions: death rate after 48 h
Experimental: as §1, §2
Method: Filter papers were put in culture dishes (Diameter=6 cm), and water was dripped on filter papers for preserving moisture. Green peach aphids (Myzus Persicae Sulzer) were maintained on cabbage. Leaves (Diameter=3 cm) of approximately 15-30 aphids were put in the culture dishes. Bioactivity tests were used the method of Airbrush Foliar Spray, pressure=10 psi (0.7 kg/cm2), spray volume=0.5 mL. The studies were conducted at three constant temperatures 25±1 C. in incubator cabinets with 60±5% RH. Survey the survival aphids after 48 h and calculate the death rates.

armyworm = test: Insecticidal activity against armyworm (airbrush spray); format: in vivo; conditions: second instar larvae, mortality after 72 h
Experimental: as §1, §2
The method of spraying by airbrush: The corn leaves were made into plates of 2 cm diameter by use of punch. A test solution (0.5 ml) was sprayed by airbrush at the pressure of 0.7 kg/cm^2 to both sides of every plate. 10 Second instar larvae were put into the petri-dishes after the leaf disc air-dried and 3 replicates were set for each treatment. Then the insects were maintained in observation room (25° C., 60˜70% R.H.). Scores were conducted and mortalities were calculated after 72 h.

cucumber downy mildew = test: Protectant activity in vivo (whole plant), cucumber downy mildew
Experimental: (§3) The method is as followed: The whole plant is used in this test. The compound is dissolved in a proper solvent to get mother solution. The proper solvent is selected from acetone, methanol, DMF and so on according to their dissolving capability to the sample. […] The testing solution is sprayed to the host plant by a special plant sprayer. The plant is inoculated with fungus after 24 hours. According to the infecting characteristic of fungus, the plant is stored in a humidity chamber and then transferred into greenhouse after infection is finished. And the other plants are placed in greenhouse directly. The activity of compound is obtained by eyeballing after 7 days in common.

wheat powdery mildew = test: Protectant activity in vivo (whole plant), wheat powdery mildew
Experimental: as §3

carmine spider mite = test: Acaricidal activity against carmine spider mite (airbrush spray); format: in vivo; conditions: Tetranychus cinnabarinus; 100 mg/L, adults, mortality after 72 hrs
Experimental: as §1, §2
Method: Broadbean shoots with two true leaves in pot were taken, the healthy adults of carmine spider mite were inoculated to the leaves. The adults were counted and then sprayed with airbrush at the pressure of 0.7 kg/cm^2 and at dose of 0.5 ml. 3 replicates were set for each treatment. And then they were maintained in standard observation room. Scores were conducted and mortalities were calculated after 72 hrs.

corn rust = test: Protectant activity in vivo (whole plant), corn rust
Experimental: as §3

cucumber gray mold = test: Fungicidal activity in vitro (96-well, High Through Put), cucumber gray mold; format: cell-based; conditions: 25 mg/L, 24 hours
[2] = tested on: human bladder cancer cell line T24; test: In vitro cell inhibition assay against human cancer cell T24; format: cell-based; conditions: 10 μM, incubation for one week, crystal violet
Experimental: The tested compounds are dissolved in DMSO and diluted to designed concentration with culture medium.
The of cell culture technology in vitro was selected to evaluate growth inhibition rate against human bladder cancer cell line T24. 1000 to 3000 cells were inoculated into 24-well plate, followed by addition of cell culture medium (1 mL) known for technicans in this field (culture medium is RMPI-1640), after cells were cultured in incubator (CO2 5%, 37° C.) for 24 hours, then the tested compounds with designed concentration were added to each well. […] After incubation for one week, the culture medium was removed, the plate wells were washed with cold PBS once, fixed with 1% formalin at room temperature for 10 minutes, and washed with cold PBS one more time, followed by stain with 0.1% crystal violet for 30 minutes. Crystal violet can be recycled. The stained cells were washed with deionized water gently, dried in the air and reserved, were then incubated for 4 h. The inhibition rate was calculated according to the left cells of each treatment and contrast.
The inhibition rate=the left cells of each treatment/the left cells of contrast×100%

| SMILES | Insecticidal activity against peach aphid ([1]; 10 mg/L) | Insecticidal activity against peach aphid (control) ([1]; 100 mg/L) | Insecticidal activity against peach aphid (control) ([1]; 600 mg/L) | protectant activity against wheat powdery mildew (wheat powdery mildew; 6.25 mg/L) | protectant activity against wheat powdery mildew (wheat powdery mildew; 25 mg/L) | protectant activity against wheat powdery mildew (wheat powdery mildew; 100 mg/L) | protectant activity against wheat powdery mildew (wheat powdery mildew; 400 mg/L) | inhibition rate against bladder cancer cell line T24 [2] | protectant activity against corn rust (corn rust; 6.25 mg/L) | protectant activity against corn rust (corn rust; 25 mg/L) | protectant activity against corn rust (corn rust; 100 mg/L) | protectant activity against corn rust (corn rust; 400 mg/L) | also measured |
| --- | --- | --- | --- | --- | --- | --- | --- | --- | --- | --- | --- | --- | --- |
| c1ccc2c(NCc3ccc4c(c3)OCO4)ncnc2c1 [CK13] |  |  |  |  |  |  |  |  |  |  |  |  | inhibition at 25 µg/mL (rice blast; Pyricularia oryzae, 24 h, read-out: inhibition rate against rice blast): 0%; pest or weed control at 600 µg/mL (diamond back moth; 600 mg/L, read-out: control of the second instar larvae of diamond back moth): 0%; pest or weed control at 10 µg/mL ([1]; Myzus persicae, foliar, 48 h, 10 mg/L, read-out: Insecticidal activity against peach aphid): 0%; pest or weed control at 100 µg/mL ([1]; Myzus persicae, foliar, 48 h, 100 mg/L, read-out: Insecticidal activity against peach aphid (control)): 0%; pest or weed control at 600 µg/mL ([1]; Myzus persicae, foliar, 48 h, 600 mg/L, read-out: Insecticidal activity against peach aphid (control)): 50%; pest or weed control at 600 µg/mL (armyworm; 600 mg/L): 0%; pest or weed control at 400 µg/mL (cucumber downy mildew; Cucumis sativus, 168 h, 400 mg/L, read-out: protectant activity against cucumber downy mildew): 0%; pest or weed control at 400 µg/mL (wheat powdery mildew; Triticum aestivum, 168 h, 400 mg/L, read-out: protectant activity against wheat powdery mildew): 0%; pest or weed control at 100 µg/mL (carmine spider mite): 0%; pest or weed control at 100 µg/mL (corn rust; Zea mays, 168 h, 100 mg/L, read-out: protectant activity against corn rust): 0%; pest or weed control at 400 µg/mL (corn rust; Zea mays, 168 h, 400 mg/L, read-out: protectant activity against corn rust): 40%; inhibition at 25 µg/mL (cucumber gray mold; read-out: inhibition rate against cucumber gray mold): 0% |
| Cc1ncnc(NCCc2ccc3c(c2)OCO3)c1Cl [Compound 5] | 0% | 52% | 100% | 75% | 85% | 100% | 100% | 100% | 100% | 100% | 100% | 100% | inhibition rate against rice blast (rice blast; in vitro, 25 mg/L, 24 hours): 80%; protectant activity against cucumber downy mildew (cucumber downy mildew; 12.5 mg/L): 100%; protectant activity against cucumber downy mildew (cucumber downy mildew; 25 mg/L): 100%; protectant activity against cucumber downy mildew (cucumber downy mildew; 50 mg/L): 100%; protectant activity against cucumber downy mildew (cucumber downy mildew; 100 mg/L): 100%; protectant activity against cucumber downy mildew (cucumber downy mildew; 400 mg/L): 100% |
| CCc1ncnc(NCCc2ccc3c(c2)OCO3)c1Cl [Compound 6] | 100% | 100% | 100% | 85% | 90% | 95% | 100% | 100% | 90% | 100% | 100% | 100% | control of the second instar larvae of diamond back moth (diamond back moth; 100 mg/L): 90%; control of the second instar larvae of diamond back moth (diamond back moth; 600 mg/L): 100%; control of the armyworm (armyworm; 100 mg/L): 90%; control of the armyworm (armyworm; 600 mg/L): 90%; inhibition rate against cucumber gray mold (cucumber gray mold): 80% |

Source: patent publication US9447081B2, “Substituted pyrimidines as pharmaceuticals and insecticides” (SHENYANG SINOCHEM AGROCHEMICALS R&D CO., LTD., priority 2012, dated 2016)
